Experimental data published in PMC11079064, “Discovery of a brain penetrant small molecule antagonist targeting LPA1 receptors to reduce neuroinflammation and promote remyelination in multiple sclerosis” (Scientific Reports, 2024).
Like-named read-outs stand apart in the source and are kept apart here.

Legend:
MOG-EAE mouse model [1] = assay: MOG-EAE mouse model, g-ratios by electron microscopy; format: in vivo
Description: In control, non-EAE mice, 90.9% of the axons were myelinated (g-ratio < 1). In vehicle treated MOG-EAE mice, only 73.4% of axons were myelinated.
Remyelinated axons canonically have thin myelin[41]. As such, we examined axons with g-ratios ≥ 0.8 but less than 1 as a surrogate measure of a remyelinating axon.
To confirm this, g-ratios in the optic nerve were similarly quantified. […] In non-MOG-EAE mice, 86.4% of the axons were myelinated. […] At 0.3 mg/kg, 85.5% were myelinated. When thinly myelinated axons were quantified, 30.2% in the MOG-treated vehicle group were observed, compared to 50.7% in the non-MOG control.
Study termination was the last day that clinical scores were determined for all study animals (Day 24). Since VEP recordings required several days (Days 21–24), oral dosing continued through perfusion, which was performed on Day 24 or Day 25. On Day 24 or 25, and following completion of VEP recordings, mice were deeply anesthetized with isoflurane anesthesia and whole body perfused with EM grade Karnovsky’s fixative (3% glutaraldehyde, 2% paraformaldehyde in 0.1 M phosphate buffer, pH 7.4; part # 15732-10; Electron Microscopy Sciences, Hatfield, PA). Spinal columns and optic nerves were collected and stored in fixative at 4 °C until further processing. After at 3–5 days in fixative, spinal cords were isolated and dissected from the vertebrae. Approximately 2 mm of the most caudal lumbar region was trimmed and segmented and, along with the optic nerves, shipped to Charles River Laboratories (Durham, NC) for processing for and imaging by electron microscopy.
The blocks were polymerized overnight at ~ 85 °C, and semi-thin sections (~ 1 μm, one per tissue) prepared and stained with toluidine blue using standard protocols. Semi-thin images were evaluated, and the most caudal region was identified as the region of focus for thin sections. Thin sections of ~ 100 nm were prepared using standard protocols and the grids were imaged at 1500 × on a JEOL JEM-1400 + transmission electron microscope fitted with an AMT 16 MP digital camera system. The direct magnification used was 1500 × or 4000 × for spinal cord and optic nerve, respectively.
Digital EM images were analyzed using ImageJ (NIH, Bethesda, MD) measure the circumference of the axon and, when present, the myelin sheath, and g-ratios were calculated. For spinal cord analysis, 4 representative images were analyzed per animal and the results pooled, and the percentages calculated from the animal total. For optic nerve analysis, 1 representative image was analyzed per optic nerve and each optic nerve was treated as a separate data point.

LPA1 = target: T1, LPA1 (Mus musculus, UniProt P61793); assay: In vivo brain LPA1 receptor occupancy with [3H]-OPC3497
T1 construct: from tissue; host or cells: mouse brain (homogenate; forebrain of dosed C57BL6/N mice in the in vivo studies)
T1 sequence (P61793 whole entry): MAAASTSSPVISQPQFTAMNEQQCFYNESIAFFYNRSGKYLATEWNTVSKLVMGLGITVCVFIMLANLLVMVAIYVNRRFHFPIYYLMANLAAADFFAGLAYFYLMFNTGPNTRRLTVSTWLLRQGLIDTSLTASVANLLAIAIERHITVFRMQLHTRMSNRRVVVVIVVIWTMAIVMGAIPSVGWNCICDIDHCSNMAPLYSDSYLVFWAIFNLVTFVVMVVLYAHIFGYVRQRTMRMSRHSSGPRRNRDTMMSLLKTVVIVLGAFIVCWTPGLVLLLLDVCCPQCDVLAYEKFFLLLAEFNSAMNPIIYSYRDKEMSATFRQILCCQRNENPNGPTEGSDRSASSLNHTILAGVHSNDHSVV
Description: [^3H]-OPC3497 was diluted to 9.8 µCi/mL in saline and administered via IV injection to the lateral tail vein at a dose volume of 5 ml/kg at the times indicated. Mice were euthanized by decapitation, trunk blood collected into K3EDTA tubes and stored on wet ice, each brain rapidly dissected and the forebrain isolated, weighed and placed into a 5 ml polypropylene tube. Tissues were diluted with a 10 × volume of ice-cold binding buffer (50 mM HEPES, 100 mM NaCl, 2 mM EDTA, pH 7.4). Brains were homogenized and 350 µl of the homogenate was filtered over Whatman GF/B filters (GE Life Sciences, Marlborough, MA) pre-wetted with 0.5% polyethyleneimine. Filters were washed with cold 50 mM TRIS–HCl, 154 mM NaCl, 0.05% Tween 20, pH 7.4 twice and dried in an oven (~ 40–50 °C). 5 ml Ultima Gold F scintillation fluid (Perkin Elmer, Boston, MA, Boston, MA) was added to each tube and samples read on a Beckman LS6500 liquid scintillation counter. After all samples were collected, dissected, and filtered, the previously collected blood in K3EDTA tubes was centrifuged (1450 × g, 10 min, 4 °C) to separate plasma.

[2] = test system: off-target panel (SAFETYscan E/IC50 ELECT); assay: Eurofins off-target panel (SAFETYscan E/IC50 ELECT); details: test concentration 30 µM
Text: Supplemental Figure 1. Results from Eurofins SAFETYscan E/IC50 ELECT.

MOG-EAE mouse model [3] = assay: MOG-EAE mouse model, visual evoked potentials; format: in vivo; details: day 21
Description: To further assess myelin status, we measured conductance velocity in the optic nerve, a heavily myelinated tract that is sensitive to demyelination. To measure conductance, we utilized visual evoked potentials (VEPs), a measure for which clinical translatability makes it an especially salient endpoint[42],[43]. VEPs were measured on day 21. […] In comparison, latency in MOG immunized animals had slowed to 60.9 ms.
VEP recordings were conducted 21–24 days post-MOG induction (for simplification, this will be referred to as a nominal Day 21 VEP throughout this document). To do this, animals were placed in a room with red light conditions and allowed to adapt for 1 h. Animals were anesthetized with an intraperitoneal injection of ketamine/Xyalazine (75/10 mg/kg). Pupils were dilated with 1.0% tropicamide (1 drop per eye) (Akorn Pharmaceuticals, Lake Forest, IL). One minute following application tropicamide, one drop of Genteal (Alcon Laboratories, Fort Worth, TX) was applied to each eye to maintain ocular moisture during anesthesia.
VEPs were conducted using a Celeris system (Diagnosys, Lowell, MA). […] Flash VEPs were recorded from each eye independently and simultaneously. […] VEP waveforms were analyzed using Espion (Diagnosys, Lowell, MA). N1 latency for each eye was determined by averaging N1 from 3 independent VEP traces. Similarly, P1–N1 and N1–P1 amplitudes were determined. […]

Compound: COc1ccc(NC(=O)N(c2ccccc2C(C)C)C2CCC(C(=O)O)CC2)c(OC(F)F)n1 (stereo not shown) [PIPE-791]
- myelinated axons, optic nerve (MOG-EAE mouse model [1]; 0.3 mg/kg): 85.5%
- thinly myelinated axons, optic nerve (MOG-EAE mouse model [1]; 0.3 mg/kg): 44.7%
- myelinated axons, optic nerve (MOG-EAE mouse model [1]; 3 mg/kg): 86.1%
- thinly myelinated axons, optic nerve (MOG-EAE mouse model [1]; 3 mg/kg): 50.6%
- time for which LPA1 occupancy was sustained (LPA1; 3 mg/kg oral, followed out to 7 days): 24 h
- EC50 (LPA1; once daily for 4 consecutive days (steady state), read-out: unbound brain EC50): 2.4 nM
- LPA1 receptor occupancy ED50 (LPA1; single oral dose 2 h prior to radioligand, mouse brain): 0.17 mg/kg
- LPA1 receptor occupancy ED50 (LPA1; single oral dose 24 h prior to radioligand, mouse brain): 0.19 mg/kg
- EC50 (LPA1; single oral dose, unbound brain concentration versus occupancy, read-out: unbound brain EC50 (Cu, brain)): 2.2 nM
- LPA1 receptor occupancy ED50 (LPA1; steady state: once daily for 4 days, occupancy 2 h after fourth dose): 0.03 mg/kg
- off-target activities [2]: no appreciable activities
- VEP N1 latency (MOG-EAE mouse model [3]; 0.3 mg/kg): 54.6 ms
- VEP N1 latency (MOG-EAE mouse model [3]; 3 mg/kg): 52 ms
